Patent US6737383B1, “Herbicidal oxadiazolidines” (priority 1999, dated 2004)

Experiments:
[1] = system: cocklebur; test: Test B pre/postemergence cocklebur; assay type: in vivo, Xanthium strumarium
Outline: (§1)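 Response is a visual 0-to-10 score relative to untreated plants, where 0 means no effect and 10 means complete control, taken twelve to sixteen days after application. Treatments went onto soil at planting and onto foliage of 1- to 4-leaf plants, using a surfactant-containing non-phytotoxic solvent.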

[2] = system: wheat; test: Test B pre/postemergence wheat; assay type: in vivo, Triticum aestivum
Outline: as §1

[3] = system: rice; test: Test B flood test rice; assay type: in vivo, Oryza sativa
Outline: (§2)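 Each value is a visual injury score relative to controls, with 10 meaning complete control and 0 no effect. Evaluation took place twelve to sixteen days after the 2-leaf-stage plants were treated and kept in the greenhouse.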

[4] = system: blackgrass; test: Test B pre/postemergence blackgrass; assay type: in vivo, Alopecurus myosuroides
Outline: as §1

[5] = system: velvetleaf; test: Test B pre/postemergence velvetleaf; assay type: in vivo, Abutilon theophrasti
Outline: as §1

[6] = system: duck salad; test: Test B flood test duck salad; assay type: in vivo, Heteranthera limosa
Outline: as §2

[7] = system: crabgrass; test: Test B pre/postemergence crabgrass; assay type: in vivo, Digitaria sanguinalis
Outline: as §1

[8] = system: wild oat; test: Test B pre/postemergence wild oat; assay type: in vivo, Avena fatua
Outline: as §1

[9] = system: smallflower flatsedge; test: Test B flood test smallflower flatsedge; assay type: in vivo, Cyperus difformis
Outline: as §2

[10] = system: surinam grass; test: Test B pre/postemergence surinam grass; assay type: in vivo, Brachiaria decumbens
Outline: as §1

[11] = system: soybean; test: Test B pre/postemergence soybean; assay type: in vivo, Glycine max
Outline: as §1

[12] = system: bedstraw; test: Test B pre/postemergence bedstraw; assay type: in vivo, Galium aparine
Outline: as §1

[13] = system: sugar beet; test: Test B pre/postemergence sugar beet; assay type: in vivo, Beta vulgaris
Outline: as §1

[14] = system: corn; test: Test B pre/postemergence corn; assay type: in vivo, Zea mays
Outline: as §1

[15] = system: bamyardgrass; test: Test B flood test barnyardgrass; assay type: in vivo, Echinochloa crus-galli
Outline: as §2

[16] = system: purple nutsedge; test: Test B pre/postemergence purple nutsedge; assay type: in vivo, Cyperus rotundus
Outline: as §1

[17] = Preemergence, Rate 62 g/ha, scale of 0 to 10 where 0 is no effect and 10 is complete control
[18] = Preemergence, Rate 250 g/ha, scale of 0 to 10 where 0 is no effect and 10 is complete control
[19] = Preemergence, Rate 500 g/ha, scale of 0 to 10 where 0 is no effect and 10 is complete control
[20] = Rate 62 g/ha, Postemergence, scale of 0 to 10 where 0 is no effect and 10 is complete control
[21] = Rate 125 g/ha, Postemergence, scale 0 to 10
[22] = Rate 125 g/ha, Preemergence, scale of 0 to 10 where 0 is no effect and 10 is complete control
[23] = Rate 500 g/ha, Postemergence, scale 0 to 10, 0 no effect, 10 complete control
[24] = Rate 62 g/ha, headed Pre-emergence (flood test species), scale 0 to 10 (0 no effect, 10 complete control)
[25] = Rate 125 g/ha, Pre-emergence, flood test species, scale 0 to 10 where 0 is no effect and 10 is complete control
[26] = Rate 250 g/ha, Pre-emergence, flood-test species, scale 0 to 10, 0 is no effect, 10 is complete control
[27] = Rate 500 g/ha, Pre-emergence, flood test species, scale 0 to 10 (0 no effect, 10 complete control)

Structure (SMILES): Cc1ccccc1-n1c(=O)on(C(=O)N(c2ccc(C(C)C)cc2)C(C)C)c1=O [Compound 231]
- Cocklebur plant response rating [1, 17]: 0
- Cocklebur plant response rating [1, 18]: 0
- Plant response rating, Cocklebur [1, 19]: 0
- Cocklebur plant response rating [1, 20]: 0
- Cocklebur plant response rating [1, 21]: 0
- Cocklebur plant response rating [1, 22]: 0
- Plant response rating (0 to 10; 0 is no effect, 10 is complete control), Cocklebur ([1]; Rate 250 g/ha, Postemergence): 0
- Cocklebur plant response rating [1, 23]: 0
- Wheat plant response rating [2, 17]: 0
- Wheat plant response rating [2, 18]: 0
- Plant response rating, Wheat [2, 19]: 0
- Wheat plant response rating [2, 20]: 0
- Wheat plant response rating [2, 21]: 0
- Wheat plant response rating [2, 22]: 0
- Plant response rating (0 to 10; 0 is no effect, 10 is complete control), Wheat ([2]; Rate 250 g/ha, Postemergence): 0
- Wheat plant response rating [2, 23]: 0
- Rice plant response rating [3, 24]: 0
- Rice plant response rating [3, 25]: 0
- Rice plant response rating [3, 26]: 0
- Rice plant response rating [3, 27]: 0
- Blackgrass plant response rating [4, 17]: 0
- Blackgrass plant response rating [4, 18]: 0
- Plant response rating, Blackgrass [4, 19]: 0
- Blackgrass plant response rating [4, 20]: 0
- Blackgrass plant response rating [4, 21]: 0
- Blackgrass plant response rating [4, 22]: 0
- Plant response rating (0 to 10; 0 is no effect, 10 is complete control), Blackgrass ([4]; Rate 250 g/ha, Postemergence): 0
- Blackgrass plant response rating [4, 23]: 0
- Velvetleaf plant response rating [5, 17]: 0
- Velvetleaf plant response rating [5, 18]: 0
- Plant response rating, Velvetleaf [5, 19]: 0
- Velvetleaf plant response rating [5, 20]: 0
- Velvetleaf plant response rating [5, 21]: 0
- Velvetleaf plant response rating [5, 22]: 0
- Plant response rating (0 to 10; 0 is no effect, 10 is complete control), Velvetleaf ([5]; Rate 250 g/ha, Postemergence): 0
- Velvetleaf plant response rating [5, 23]: 0
- Ducksalad plant response rating [6, 24]: 0
- Ducksalad plant response rating [6, 25]: 0
- Ducksalad plant response rating [6, 26]: 0
- Ducksalad plant response rating [6, 27]: 0
- Crabgrass plant response rating [7, 17]: 0
- Crabgrass plant response rating [7, 18]: 0
- Plant response rating, Crabgrass [7, 19]: 7
- Crabgrass plant response rating [7, 20]: 0
- Crabgrass plant response rating [7, 21]: 0
- Crabgrass plant response rating [7, 22]: 0
- Plant response rating (0 to 10; 0 is no effect, 10 is complete control), Crabgrass ([7]; Rate 250 g/ha, Postemergence): 0
- Crabgrass plant response rating [7, 23]: 2
- Wild oats plant response rating [8, 17]: 0
- Wild oats plant response rating [8, 18]: 0
- Plant response rating, Wild oats [8, 19]: 0
- Wild oats plant response rating [8, 20]: 0
- Wild oats plant response rating [8, 21]: 0
- Wild oats plant response rating [8, 22]: 0
- Plant response rating (0 to 10; 0 is no effect, 10 is complete control), Wild oats ([8]; Rate 250 g/ha, Postemergence): 0
- Wild oats plant response rating [8, 23]: 0
- S. Flatsedge plant response rating [9, 24]: 0
- S. Flatsedge plant response rating [9, 25]: 0
- S. Flatsedge plant response rating [9, 26]: 0
- S. Flatsedge plant response rating [9, 27]: 0
- B. signalgrass plant response rating [10, 17]: 0
- B. signalgrass plant response rating ([10]; Preemergence, Rate 250 g/ha, scale 0 to 10, 0 is no effect, 10 is complete control): 0
- Plant response rating, B. signalgrass [10, 19]: 0
- B. signalgrass plant response rating [10, 20]: 0
- B. signalgrass plant response rating ([10]; Rate 125 g/ha, Postemergence, scale 0 (no effect) to 10 (complete control)): 0
- B. signalgrass plant response rating [10, 22]: 0
- Plant response rating (0 to 10; 0 is no effect, 10 is complete control), B. signalgrass ([10]; Rate 250 g/ha, Postemergence): 0
- B. signalgrass plant response rating [10, 23]: 0
- Soybean plant response rating [11, 17]: 0
- Soybean plant response rating [11, 18]: 0
- Plant response rating, Soybean [11, 19]: 0
- Soybean plant response rating [11, 20]: 0
- Soybean plant response rating [11, 21]: 1
- Soybean plant response rating [11, 22]: 0
- Plant response rating (0 to 10; 0 is no effect, 10 is complete control), Soybean ([11]; Rate 250 g/ha, Postemergence): 1
- Soybean plant response rating [11, 23]: 1
- Bedstraw plant response rating [12, 17]: 0
- Bedstraw plant response rating [12, 18]: 0
- Plant response rating, Bedstraw [12, 19]: 0
- Bedstraw plant response rating [12, 20]: 0
- Bedstraw plant response rating [12, 21]: 0
- Bedstraw plant response rating [12, 22]: 0
- Plant response rating (0 to 10; 0 is no effect, 10 is complete control), Bedstraw ([12]; Rate 250 g/ha, Postemergence): 0
- Bedstraw plant response rating [12, 23]: 0
- Sugarbeets plant response rating [13, 17]: 0
- Sugarbeets plant response rating [13, 18]: 0
- Plant response rating, Sugarbeets [13, 19]: 0
- Sugarbeets plant response rating [13, 20]: 0
- Sugarbeets plant response rating [13, 21]: 0
- Sugarbeets plant response rating [13, 22]: 0
- Plant response rating (0 to 10; 0 is no effect, 10 is complete control), Sugarbeets ([13]; Rate 250 g/ha, Postemergence): 0
- Sugarbeets plant response rating [13, 23]: 0
- Corn plant response rating [14, 17]: 0
- Corn plant response rating [14, 18]: 0
- Plant response rating, Corn [14, 19]: 0
- Corn plant response rating [14, 20]: 0
- Corn plant response rating [14, 21]: 0
- Corn plant response rating [14, 22]: 0
- Plant response rating (0 to 10; 0 is no effect, 10 is complete control), Corn ([14]; Rate 250 g/ha, Postemergence): 0
- Corn plant response rating [14, 23]: 0
- Barnyardgrass plant response rating [15, 24]: 0
- Barnyardgrass plant response rating [15, 25]: 0
- Barnyardgrass plant response rating [15, 26]: 0
- Barnyardgrass plant response rating [15, 27]: 0
- Nutsedge plant response rating [16, 17]: 0
- Nutsedge plant response rating [16, 18]: 0
- Plant response rating, Nutsedge [16, 19]: 0
- Nutsedge plant response rating [16, 20]: 0
- Nutsedge plant response rating [16, 21]: 0
- Nutsedge plant response rating [16, 22]: 0
- Plant response rating (0 to 10; 0 is no effect, 10 is complete control), Nutsedge ([16]; Rate 250 g/ha, Postemergence): 0
- Nutsedge plant response rating [16, 23]: 0
